Measured values published in USRE47245E1, “Pro-angiogenic peptides and uses thereof” (Susavion Biosciences, Inc., priority 2006, dated 2019).
Where no end group is shown, it is not given here.

Key:
[1] = test system: 786-0 human renal cell adenocarcinoma cell line; assay: Pro-angiogenic activity: growth of xenograft tumor in nude mouse; assay type: in vivo, nude mouse (nu/nu); conditions: in combination with the WNSTL construct
Description: Tumors require vascularization to obtain nutrients to support growth. Therefore, stimulation of growth of a tumor in response to administration of a construct of this invention is an indication of angiogenesis. For this example, a xenograph model system with the nude mouse (nu/nu) was used to determine the effect of peptide on growth of 786-0 human renal cell adenocarcinoma cell line injected into the flank of a mouse so as to induce a tumor. After the tumor was established, peptide was injected subcutaneously on alternate days. The weight of the tumor was estimated by calculation of the volume.
FIG. 4 illustrates data resulting from assays for pro-angiogenic activity for one embodiment of the invention. […] The peptide was also assayed in combination with Sorafenib, an anti-angiogenic drug.

[2] = test system: macrophages in PBMC cultures; assay: Stimulation of phagocytosis: macrophages engulfing microspheres opsonized with anti-HIV antibodies; assay type: cell-based, human; conditions: PBMC cultures pretreated; control cultures 0 to 3 beads
Description: The activity of the peptides to stimulate phagocytosis was assessed by the ability of macrophages to engulf microspheres opsonized with anti-HIV antibodies. A biotin-tagged peptide epitope of a surface protein of HIV-1 was bound to streptavidin on the surface of the beads. An antibody preparation that was raised against this epitope was then bound to the HIV peptide. The beads were then washed and presented to PBMC cultures pretreated with peptides. Macrophages in cultures not treated with peptides had little, if any, phagocytic activity. In multiple control cultures, the number of beads within a macrophage-like cell ranged from 0 to 3. In the cultures treated with peptide constructs containing four copies of the peptide sequences WNSTL (SEQ ID NO:1), NQHTPR (SEQ ID NO:2), or VQATQS (SEQ ID NO:8), an average of 10 beads were counted in each phagocytic cell, with no substantial difference between peptide constructs.

[3] = test system: peripheral blood mononuclear cells (PBMCs); assay: Regulation of cytokine release: cytokine antibody array on medium of PBMC cultures; assay type: cell-based, human; conditions: PBMCs in serum, 4 hr; construct 100 nM
Description: To determine whether the peptides regulate induction or inhibition of release of cytokines, cultured peripheral blood mononuclear cells (PBMCs) were treated with one peptide embodiment of the invention and, after 4 hour incubation, the medium was collected and assayed for changes in the amounts of 40 different cytokines. The peptide construct containing four copies of WNSTL (SEQ ID NO:1), illustrated in FIG. 2A, was added at a concentration of 100 nM in each of the assays. The PBMC cultures were established with cells from Cellular Technology, Ltd. (Shaker Heights, Ohio). Approximately 3 million cells of frozen human PBMCs were thawed at 37° C. and transferred to a 50 mL conical tube where 8 mL of wash medium were added slowly. Then an additional 8 mL were added and swirled to mix. The cells were then centrifuged at 330 g for 10 min, the supernatant was removed and the pellet was resuspended in 10 mL wash medium and centrifuged as above. The washed cells were then resuspended in RPMI 1640 medium containing 10% FBS to about 6 million cells per mL and 100 μL of the suspension were added into each well of a 96-well microtiter plate and incubated overnight at 37° C. in humidified 5% CO2. After 24 hr, the medium was replaced with 200 μL fresh RPMI 1640 medium containing 10% FBS and incubated at 37° C. in humidified 5% CO2 for 2 days. For the data shown in TABLE 1, an aliquot of the peptide construct was added to samples in duplicate at a final concentration of 5 nM or 100 nM and incubated at 37° C. in humidified 5% CO2 for 4 hr. For other experiments (data not included), the incubation was continued for 24 hr. The medium was then removed and stored at […]. The samples were analyzed for production of cytokines. One set of control cells was not treated with an experimental agent. A second set of control cells was treated with LPS, the agent commonly used to induce production of a variety of inflammatory cytokines.
Assays of cytokine levels in samples of culture media were performed using methods developed by RayBiotech, Inc. (Norcross, Ga.). In this technology, membrane arrays of antibodies against cytokines were incubated with samples of media. After washing, the array was incubated with a cocktail of all antibodies tagged with biotin. The membrane was then washed free of unbound antibodies and incubated with streptavidin labeled with a fluorescent dye. After a final wash, the membrane arrays were read in a fluorescence detector and the intensities of the spots quantitated to obtain relative values.
One set of control samples was not treated with peptide and a second set of control samples was treated with lipopolysaccharide (LPS) in the absence of the peptide construct. The structure of the construct is illustrated in FIG. 2A. […] The decrease in IL-8 concentration in the peptide-treated sample, as compared with the amount of IL-8 in the sample treated with the proto-typical inflammatory agent LPS, is particularly notable. […] The increase in the proangiogenic PDGF-BB and the decrease in the inflammatory IL-8, without concomitant stimulation of inflammation, are of particular importance with respect to wound healing. […]

| Molecule | effect on the peptide-enhanced tumor growth [1] | average beads counted in each phagocytic cell [2] | Relative concentration of Eotaxin [3] | Relative concentration of Eotaxin-2 [3] | Relative concentration of IL-12p40 [3] | Relative concentration of IL-12p70 [3] | Relative concentration of IL-15 [3] | Relative concentration of IL-16 [3] | Relative concentration of IL-17 [3] | Relative concentration of IL-21 [3] | Relative concentration of M-CSF [3] | Relative concentration of MCP-2 [3] | Relative concentration of MIG [3] | Relative concentration of MIP-1b [3] | Relative concentration of TIMP-2 [3] | Relative concentration of TNF-β [3] | Relative concentration of sTNF RII [3] |
| --- | --- | --- | --- | --- | --- | --- | --- | --- | --- | --- | --- | --- | --- | --- | --- | --- | --- |
| CNC(=O)c1cc(Oc2ccc(NC(=O)Nc3ccc(Cl)c(C(F)(F)F)c3)cc2)ccn1 [Sorafenib, reference compound] | strongly (but not completely) inhibited | – | – | – | – | – | – | – | – | – | – | – | – | – | – | – | – |
| IFN-γ: cytokine Interferon-gamma used as comparison treatment [reference compound] | – | roughly 15 beads | – | – | – | – | – | – | – | – | – | – | – | – | – | – | – |
| NQHTPR: branched construct: four copies of core sequence NQHTPR, each via GGGS linker on tri-lysine framework (also: tetramer: four copies each via GGGS linker on tri-lysine framework (branched)) | – | 10 beads | 57 | 310 | 45 | 65 | 146 | 8 | 14 | 200 | 116 | 90 | 100 | 777 | 110 | 84 | 26 |
